Results as given in PMC7547832 (Journal of Fluorine Chemistry, 2020).

Key:
Type in all cases: cell-based
[1] = Toxicity studies, microtetrazolium test; conditions: dog, MDCK cells (ATCC CCL-34)
[2] = system: Influenza virus A/Puerto Rico/8/34 (H1N1); conditions: ratio of CC50 to IC50, MDCK cell line
Coxsackie virus B3 = test: Cell protection assay, Coxsackie virus B3 in Vero cells; conditions: for IC50: Enterovirus B, B3, Vero, 72 h; for SI (selectivity index): ratio of CC50 to IC50, Coxsackie virus B3, Vero cell line

Which CC50 at 48 h [1] does the source give for `COC(=O)c1c(-c2ccc(OC)c(OC)c2)oc2c(F)c(F)c(F)c(F)c2c1=O` [Compound 4a, Methyl 5,6,7,8-tetrafluoro-2-(3,4-dimethoxyphenyl)-4-oxo-4H-chromene-3-carboxylate] here?
The CC50 at 48 h was 109 ± 8 µM.

And the “SI (selectivity index)” value [2]?
The value was 2.

What about the IC50 (Coxsackie virus B3) of the same compound?
Its IC50 is greater than 61 µM.

What does the source list for `COC(=O)c1c(-c2ccc(OC)c(OC)c2)oc2c(F)c(F)c(F)cc2c1=O` [Compound 5а, Methyl 6,7,8-trifluoro-2-(3,4-dimethoxyphenyl)-4-oxo-4H-chromene-3-carboxylate]?
CC50 at 48 h [1]: 508 ± 32 µM; SI (selectivity index) [2]: 16; IC50 (Coxsackie virus B3): 635 ± 42 µM

With `COC(=O)c1c(-c2ccc(OC)c(OC)c2)oc2c(F)c(-n3ccnc3)c(F)c(F)c2c1=O` [Compound 6a, Methyl 5,6,8-trifluoro-2-(3,4-dimethoxyphenyl)-7-(1H-imidazol-1-yl)-4-oxo-4H-chromene-3-carboxylate] as the compound, how does the CC50 at 48 h [1] read?
Its CC50 at 48 h is 61 ± 4 µM.

And the “SI (selectivity index)” value [2]?
Its value is 5.

And the IC50 (Coxsackie virus B3)?
The IC50 was greater than 65 µM.

With `COC(=O)c1c(-c2ccc(OC)c(OC)c2)oc2c(F)c(-n3ccnc3)c(F)cc2c1=O` [Compound 7а, Methyl 6,8-difluoro-2-(3,4-dimethoxyphenyl)-7-(1H-imidazol-1-yl)-4-oxo-4H-chromene-3-carboxylate] as the compound, how does the CC50 at 48 h [1] read?
The CC50 at 48 h was greater than 679 µM.

What about the IC50 (Coxsackie virus B3) of the same compound?
The IC50 was greater than 226 µM.

Which results are given for `COC(=O)c1c(-c2ccc(OC)cc2)oc2c(F)c(-n3ccnc3)c(F)c(O)c2c1=O` [Compound 8b, Methyl 6,8-difluoro-5-hydroxy-7-(1H-imidazol-1-yl)-2-(4-methoxyphenyl)-4-oxo-4H-chromene-3-carboxylate]?
CC50 at 48 h [1]: 629 ± 41 µM; SI (selectivity index) [2]: 16

Which CC50 at 48 h [1] does the source give for `COc1ccc(-c2cc(=O)c3c(F)c(F)c(-n4ccnc4)c(F)c3o2)cc1OC` [Compound 13, 5,6,8-Trifluoro-2-(3,4-dimethoxyphenyl)-7-(1H-imidazol-1-yl)-4H-chromene-4-one] here?
Its CC50 at 48 h is greater than 746 µM.

And the IC50 (Coxsackie virus B3)?
Its IC50 is 29 ± 4 µM.

And the “antiviral properties against the Coxsackie virus B3 (in words)” value (Coxsackie virus B3; Vero cell culture)?
Its value is “demonstrated antiviral properties against the Coxsackie virus B3”.

What about the “SI (selectivity index)” value (Coxsackie virus B3) of the same compound?
The value was 26.

For `NC(=O)c1ncn([C@@H]2O[C@H](CO)[C@@H](O)[C@H]2O)n1` [ribavirin, reference compound], which CC50 at 48 h [1] is on record?
The CC50 at 48 h was greater than 2130 µM.

What about the IC50 (Coxsackie virus B3) of the same compound?
Its IC50 is 34 ± 4 µM.

And the “SI (selectivity index)” value (Coxsackie virus B3)?
The value was greater than 63.
